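48-hour exposure; five concentrations; linearly interpolated endpoints. GI50 marks 50% less growth. The concentration for full growth arrest is given as TGI.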
Tests used:
Assay in all cases: NCI-60 cell line screen, 48 h
786-0 renal = system: 786-0 renal
A498 renal = system: A498 renal
A549 NSCLC = system: A549 NSCLC
ACHN renal = system: ACHN renal
BT-549 breast = system: BT-549 breast
CAKI-1 renal = system: CAKI-1 renal
CCRF-CEM leukemia = system: CCRF-CEM leukemia
COLO 205 colon = system: COLO 205 colon
DU-145 prostate = system: DU-145 prostate
EKVX NSCLC = system: EKVX NSCLC
HCC-2998 colon = system: HCC-2998 colon
HCT-116 colon = system: HCT-116 colon
HCT-15 colon = system: HCT-15 colon
HL-60(TB) leukemia = system: HL-60(TB) leukemia
HOP-62 NSCLC = system: HOP-62 NSCLC
HOP-92 NSCLC = system: HOP-92 NSCLC
HS 578T breast = system: HS 578T breast
HT29 colon = system: HT29 colon
IGROV1 ovarian = system: IGROV1 ovarian
K-562 leukemia = system: K-562 leukemia
LOX IMVI melanoma = system: LOX IMVI melanoma
M14 melanoma = system: M14 melanoma
MALME-3M melanoma = system: MALME-3M melanoma
MCF7 breast = system: MCF7 breast
MDA-MB-231 breast = system: MDA-MB-231 breast
MDA-MB-435 = system: MDA-MB-435
MOLT-4 leukemia = system: MOLT-4 leukemia
NCI-H226 lung = system: NCI-H226 lung
NCI-H460 lung = system: NCI-H460 lung
NCI-H522 lung = system: NCI-H522 lung
NCI/ADR-RES ovarian = system: NCI/ADR-RES ovarian
OVCAR-3 ovarian = system: OVCAR-3 ovarian
OVCAR-4 ovarian = system: OVCAR-4 ovarian
OVCAR-5 ovarian = system: OVCAR-5 ovarian
OVCAR-8 ovarian = system: OVCAR-8 ovarian
PC-3 prostate = system: PC-3 prostate
RPMI-8226 leukemia = system: RPMI-8226 leukemia
RXF 393 renal = system: RXF 393 renal
SF-268 CNS = system: SF-268 CNS
SF-539 CNS = system: SF-539 CNS
SK-MEL-2 melanoma = system: SK-MEL-2 melanoma
SK-MEL-28 melanoma = system: SK-MEL-28 melanoma
SK-MEL-5 melanoma = system: SK-MEL-5 melanoma
SK-OV-3 ovarian = system: SK-OV-3 ovarian
SN12C renal = system: SN12C renal
SNB-19 CNS = system: SNB-19 CNS
SNB-75 CNS = system: SNB-75 CNS
SR leukemia = system: SR leukemia
SW-620 colon = system: SW-620 colon
T-47D breast = system: T-47D breast
TK-10 renal = system: TK-10 renal
U251 CNS = system: U251 CNS
UACC-257 melanoma = system: UACC-257 melanoma
UACC-62 melanoma = system: UACC-62 melanoma
UO-31 renal = system: UO-31 renal

## COc1ccc(NC(=O)[C@H](C)NC(=O)OC(C)(C)C)cc1C(=O)Nc1cccc(-c2cc(=O)c3c(OC)c(OC)c(OC)cc3o2)c1
786-0 renal
  GI50: 3.03 µM
  TGI: > 100 µM
A498 renal
  GI50: 3.35 µM
  TGI: 32.7 µM
A549 NSCLC
  GI50: 2.94 µM
  TGI: 10.9 µM
ACHN renal
  GI50: 3.34 µM
  TGI: > 100 µM
BT-549 breast
  GI50: 1.52 µM
  TGI: 2.99 µM
CAKI-1 renal
  GI50: 3.06 µM
  TGI: > 100 µM
CCRF-CEM leukemia
  GI50: 1.86 µM
  TGI: 8.26 µM
COLO 205 colon
  GI50: 1.87 µM
  TGI: 3.59 µM
DU-145 prostate
  GI50: 3.86 µM
  TGI: > 100 µM
EKVX NSCLC
  GI50: 3.17 µM
  TGI: > 100 µM
HCC-2998 colon
  GI50: 1.76 µM
  TGI: 3.21 µM
HCT-116 colon
  GI50: 2.05 µM
  TGI: 4.63 µM
HCT-15 colon
  GI50: 2.38 µM
  TGI: 7.27 µM
HL-60(TB) leukemia
  GI50: 2.07 µM
  TGI: 4.96 µM
HOP-62 NSCLC
  GI50: 2.14 µM
  TGI: 5.18 µM
HOP-92 NSCLC
  GI50: 0.37 µM
  TGI: 4.14 µM
HS 578T breast
  GI50: 2.64 µM
  TGI: 9.44 µM
HT29 colon
  GI50: 1.88 µM
  TGI: 3.87 µM
IGROV1 ovarian
  GI50: 3.25 µM
  TGI: > 100 µM
K-562 leukemia
  GI50: 2.55 µM
  TGI: > 100 µM
LOX IMVI melanoma
  GI50: 1.59 µM
  TGI: 3.11 µM
M14 melanoma
  GI50: 2.98 µM
  TGI: 7.94 µM
MALME-3M melanoma
  GI50: 2.48 µM
  TGI: 6.73 µM
MCF7 breast
  GI50: 2.72 µM
  TGI: 9.52 µM
MDA-MB-231 breast
  GI50: 1.83 µM
  TGI: 3.99 µM
MDA-MB-435
  GI50: 2 µM
  TGI: 4.11 µM
MOLT-4 leukemia
  GI50: 1.71 µM
  TGI: 7.9 µM
NCI-H226 lung
  GI50: 1.8 µM
  TGI: 3.84 µM
NCI-H460 lung
  GI50: 2.31 µM
  TGI: 5.24 µM
NCI-H522 lung
  GI50: 1.72 µM
  TGI: 3.99 µM
NCI/ADR-RES ovarian
  GI50: 8.01 µM
  TGI: > 100 µM
OVCAR-3 ovarian
  GI50: 2.13 µM
  TGI: 4.43 µM
OVCAR-4 ovarian
  GI50: 3.13 µM
  TGI: > 100 µM
OVCAR-5 ovarian
  GI50: 2.01 µM
  TGI: 5.23 µM
OVCAR-8 ovarian
  GI50: 1.7 µM
  TGI: 5.47 µM
PC-3 prostate
  GI50: 2.95 µM
  TGI: > 100 µM
RPMI-8226 leukemia
  GI50: 1.55 µM
  TGI: 5.07 µM
RXF 393 renal
  GI50: 1.89 µM
  TGI: 3.37 µM
SF-268 CNS
  GI50: 3.41 µM
  TGI: > 100 µM
SF-539 CNS
  GI50: 1.88 µM
  TGI: 4.12 µM
SK-MEL-2 melanoma
  GI50: 1.8 µM
  TGI: 4.29 µM
SK-MEL-28 melanoma
  GI50: 2.5 µM
  TGI: 5.72 µM
SK-MEL-5 melanoma
  GI50: 1.47 µM
  TGI: 2.99 µM
SK-OV-3 ovarian
  GI50: 2.3 µM
  TGI: 4.87 µM
SN12C renal
  GI50: 2.38 µM
  TGI: 7.34 µM
SNB-19 CNS
  GI50: 3.56 µM
  TGI: > 100 µM
SNB-75 CNS
  GI50: 1.46 µM
  TGI: 3.2 µM
SR leukemia
  GI50: 2.37 µM
  TGI: > 100 µM
SW-620 colon
  GI50: 2.93 µM
  TGI: 8.64 µM
T-47D breast
  GI50: 1.7 µM
  TGI: 5.97 µM
TK-10 renal
  GI50: 2.04 µM
  TGI: 7.78 µM
U251 CNS
  GI50: 2.46 µM
  TGI: 6.61 µM
UACC-257 melanoma
  GI50: 1.99 µM
  TGI: 3.8 µM
UACC-62 melanoma
  GI50: 1.7 µM
  TGI: 3.33 µM
UO-31 renal
  GI50: 2.4 µM
  TGI: > 100 µM
